# Data from ChEMBL document CHEMBL1122976, “Potential inhibitors of S-adenosylmethionine-dependent methyltransferases. 10. Base- and amino acid modified analogues of S-aristeromycinyl-L-homocysteine” (J Med Chem, 1985).
# Assays:
# [1] = biological target: T1, Phenylethanolamine N-methyltransferase (Bos taurus) (UniProt P10938); assay: Inhibition of PNMT at 0.2 mM
# T1 sequence (whole entry): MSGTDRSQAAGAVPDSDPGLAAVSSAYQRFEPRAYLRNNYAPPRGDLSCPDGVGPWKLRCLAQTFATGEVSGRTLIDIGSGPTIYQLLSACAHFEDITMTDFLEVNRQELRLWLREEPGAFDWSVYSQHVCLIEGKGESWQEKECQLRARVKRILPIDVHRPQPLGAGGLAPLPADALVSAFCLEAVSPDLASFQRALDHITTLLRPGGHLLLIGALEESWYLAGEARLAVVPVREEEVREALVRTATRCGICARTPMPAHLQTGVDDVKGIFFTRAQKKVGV
# [2] = biological target: T2, Catechol O-methyltransferase (Rattus norvegicus) (UniProt P22734); assay: Inhibition of Catechol O-methyltransferase at 2.0 mM
# T2 sequence (whole entry): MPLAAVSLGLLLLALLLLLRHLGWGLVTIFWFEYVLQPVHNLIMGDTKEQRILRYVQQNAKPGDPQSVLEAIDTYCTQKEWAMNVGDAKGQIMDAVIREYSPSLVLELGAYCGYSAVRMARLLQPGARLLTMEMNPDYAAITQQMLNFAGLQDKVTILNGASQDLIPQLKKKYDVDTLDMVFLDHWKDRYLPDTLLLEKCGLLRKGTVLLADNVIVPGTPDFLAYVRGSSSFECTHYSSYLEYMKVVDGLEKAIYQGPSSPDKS
# [3] = biological target: T2, Catechol O-methyltransferase (Rattus norvegicus); assay: Inhibition of Catechol O-methyltransferase at 0.2 mM
# [4] = biological target: Histamine N-methyltransferase (Cavia porcellus) (UniProt Q9EST2); assay: Inhibition of Histamine N-methyl-transferase at 2.0 mM
# [5] = biological target: T1, Phenylethanolamine N-methyltransferase (Bos taurus); assay: Inhibition of PNMT at 2.0 mM
# [6] = biological target: Histamine N-methyltransferase (Cavia porcellus) (UniProt Q9EST2); assay: Inhibition of Histamine N-methyl-transferase at 0.2 mM
# [7] = biological target: T3, Phenylethanolamine N-methyltransferase (Bos taurus, UniProt P10938); assay: Inhibition constant was evaluated against PNMT
# T3 sequence (P10938 whole entry): T1 sequence (whole entry)
# Chain of Histamine N-methyltransferase (Cavia porcellus) (Q9EST2 whole entry): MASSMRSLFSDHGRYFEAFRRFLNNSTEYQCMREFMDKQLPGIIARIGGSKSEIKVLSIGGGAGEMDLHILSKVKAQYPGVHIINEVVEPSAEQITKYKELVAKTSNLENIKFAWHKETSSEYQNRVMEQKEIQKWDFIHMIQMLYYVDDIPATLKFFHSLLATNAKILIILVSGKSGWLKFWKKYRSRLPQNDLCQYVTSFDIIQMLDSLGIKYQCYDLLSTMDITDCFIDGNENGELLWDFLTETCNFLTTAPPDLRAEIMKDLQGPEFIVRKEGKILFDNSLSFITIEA
inhibition [1],inhibition [2],inhibition [3],inhibition [4],inhibition [5],inhibition [6],Ki [7],Structure (SMILES)
10%,42%,14%,9%,22%,0%,–,Nc1ncnc2c1ncn2[C@@H]1O[C@H](C[S+]([O-])CCC(N)C(=O)O)[C@@H](O)[C@H]1O (some centres undefined)
–,–,–,–,–,–,29 µM,Nc1ncnc2c1ncn2[C@@H]1O[C@H](CSCC[C@H](N)C(=O)O)[C@@H](O)[C@H]1O (stereo in doubt; 5) [S-ADENOSYLHOMOCYSTEINE]
–,–,–,–,–,–,62.3 µM,Nc1ncnc2c1ncn2[C@@H]1O[C@H](CSCC[C@H](N)C(=O)O)[C@@H](O)[C@H]1O (stereo in doubt; 9) [S-ADENOSYLHOMOCYSTEINE]
11%,55%,15%,28%,42%,11%,–,CNc1ncnc2c1ncn2C1O[C@H](CSCCC(N)C(=O)O)[C@@H](O)[C@H]1O (some centres undefined)
